No end group written: not given here.
Columns and labels:
[1] = tested on: TfnR uptake via CME in ARPE/HPV cells; experiment: TfnR uptake (in-cell ELISA) after peptide preincubation; type: cell-based; conditions: 60-min preincubation with peptide at 37°C, concentration curves, n = 4 replicates (Fig. 7 F), read-out: IC50 for inhibition of TfnR uptake
Procedure: Peptides encoding the TAT sequence (YGRKKRRQRRR) followed by 10 amino acid sequences covering the four reported binding sites on the clathrin terminal domain (Fig. 7 A) were synthesized by GenScript (Piscataway, NJ) with >95% purity. Peptides were dissolved in dH2O and further diluted in PBS4+ (1× PBS buffer plus 0.2% BSA, 1 mM CaCl2, 1 mM MgCl2, and 5 mM D-glucose) or cell culture medium (for imaging) when applied to cells. Peptide solutions were stored at −20°C.
Internalization of TfnR, CD44, CD59, and Biotin-Tfn was quantified by in-cell ELISA following established protocols ([Conner and Schmid, 2003]; [Srinivasan et al., 2018]). Cells were seeded in 96-well plates (Costar) at 60–70% confluence and grown overnight. Before the assay, cells were starved for 30 min in PBS4+ at 37°C or treated with peptides in PBS4+ at 37°C for the indicated times. After starvation, cells were moved to 4°C, and culture medium was replaced with cold PBS4+ containing 5 µg/ml HTR-D65 (anti-TfnR mAb; [Schmid and Smythe, 1991]), anti-human CD44 or anti-human CD59 (BD PharMingen) or 5 µg/ml Biotin-Tfn (Sigma-Aldrich). For single-round assays, the above reagents were kept with cells for 20 min at 4°C and then washed out before uptake assay. For multiround assays, the above reagents were kept with cells throughout the uptake process. In parallel, some cells were kept at 4°C for the measurement of surface-bound ligands and blank controls, and some were incubated in a 37°C water bath for the indicated times. Acid wash (0.2 M acetic acid and 0.2 M NaCl, pH 2.3) was used to remove surface-bound antibodies, followed by washing with cold PBS. All were fixed with 4% PFA (Electron Microscopy Sciences) in PBS for 30 min at 37°C. 0.1% Triton X-100 was added for 6.5 min to permeabilize cells, followed by addition of blocking buffer. HTR-D65–, CD44-, and CD59-treated cells were blocked with Q-PBS (PBS, 2% BSA, 0.1% lysine, and 0.01% saponin, pH 7.4), and Biotin-Tfn–treated cells were blocked with 2% casein. Surface-bound and internalized HTR-D65, CD44, and CD59 were probed with goat anti-mouse antibody conjugated with HRP (Sigma-Aldrich), and Biotin-Tfn was probed with Streptavidin-POD conjugate (Sigma-Aldrich). Color was developed using o-phenylenediamine dihydrochloride (OPD) solution (Sigma-Aldrich), and absorbance was read at 490 nm (Biotek Synergy H1 Hybrid Reader). Cell number variation among wells was accounted for by bicinchoninic acid assay reading at 562 nm.

[2] = molecular target: SNX9 (Homo sapiens, UniProt Q9Y5X1); experiment: Isothermal titration calorimetry with SNX9; type: binding; conditions: ITC, 20°C, 20 mM Hepes, 150 mM NaCl, 1 mM TCEP, pH 7.4; 1.8 mM Wbox2 injected into 50 µM SNX9; two nonsymmetric sites model; read-out: binding affinity KD1, first Wbox2 binding site on SNX9
SNX9, sequence (Q9Y5X1 whole entry, species assumed): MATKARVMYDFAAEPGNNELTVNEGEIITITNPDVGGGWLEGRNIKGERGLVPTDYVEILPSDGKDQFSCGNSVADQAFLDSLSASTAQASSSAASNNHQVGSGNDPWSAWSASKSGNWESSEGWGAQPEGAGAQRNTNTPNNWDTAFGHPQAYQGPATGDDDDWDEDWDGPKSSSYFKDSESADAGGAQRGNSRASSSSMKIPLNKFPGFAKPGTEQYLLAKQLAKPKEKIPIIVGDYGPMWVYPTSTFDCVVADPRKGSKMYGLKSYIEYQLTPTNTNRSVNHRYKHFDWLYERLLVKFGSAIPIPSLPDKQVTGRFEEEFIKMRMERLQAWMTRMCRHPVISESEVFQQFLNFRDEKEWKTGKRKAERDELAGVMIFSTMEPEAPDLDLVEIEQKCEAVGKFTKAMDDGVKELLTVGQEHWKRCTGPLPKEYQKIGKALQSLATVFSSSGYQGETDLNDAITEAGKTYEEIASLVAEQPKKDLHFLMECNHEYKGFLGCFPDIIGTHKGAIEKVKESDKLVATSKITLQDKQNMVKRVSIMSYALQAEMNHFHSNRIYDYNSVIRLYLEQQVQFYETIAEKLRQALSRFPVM
Excerpt: GUSSI was further used to output the figures presented.

[3] = tested on: cell viability; experiment: Cell viability, Cell Counting Kit 8 (CCK-8); type: cell-based; conditions: for cytotoxicity IC50 relative to concentration needed to inhibit CME: cytotoxicity vs CME inhibition
[4] = molecular target: hinge + appendage domain of the AP2 β2 subunit (β2-HAD) (UniProt P63010); conditions: read-out: binding affinity KD to β2-HAD; ITC, 20°C, pH 7.4; 1.2 mM Wbox2 injected into 200 µM β2-HAD; A+B <–> AB model; binds a fraction of purified β2-HAD
hinge + appendage domain of the AP2 β2 subunit (β2-HAD), sequence (P63010 2-937): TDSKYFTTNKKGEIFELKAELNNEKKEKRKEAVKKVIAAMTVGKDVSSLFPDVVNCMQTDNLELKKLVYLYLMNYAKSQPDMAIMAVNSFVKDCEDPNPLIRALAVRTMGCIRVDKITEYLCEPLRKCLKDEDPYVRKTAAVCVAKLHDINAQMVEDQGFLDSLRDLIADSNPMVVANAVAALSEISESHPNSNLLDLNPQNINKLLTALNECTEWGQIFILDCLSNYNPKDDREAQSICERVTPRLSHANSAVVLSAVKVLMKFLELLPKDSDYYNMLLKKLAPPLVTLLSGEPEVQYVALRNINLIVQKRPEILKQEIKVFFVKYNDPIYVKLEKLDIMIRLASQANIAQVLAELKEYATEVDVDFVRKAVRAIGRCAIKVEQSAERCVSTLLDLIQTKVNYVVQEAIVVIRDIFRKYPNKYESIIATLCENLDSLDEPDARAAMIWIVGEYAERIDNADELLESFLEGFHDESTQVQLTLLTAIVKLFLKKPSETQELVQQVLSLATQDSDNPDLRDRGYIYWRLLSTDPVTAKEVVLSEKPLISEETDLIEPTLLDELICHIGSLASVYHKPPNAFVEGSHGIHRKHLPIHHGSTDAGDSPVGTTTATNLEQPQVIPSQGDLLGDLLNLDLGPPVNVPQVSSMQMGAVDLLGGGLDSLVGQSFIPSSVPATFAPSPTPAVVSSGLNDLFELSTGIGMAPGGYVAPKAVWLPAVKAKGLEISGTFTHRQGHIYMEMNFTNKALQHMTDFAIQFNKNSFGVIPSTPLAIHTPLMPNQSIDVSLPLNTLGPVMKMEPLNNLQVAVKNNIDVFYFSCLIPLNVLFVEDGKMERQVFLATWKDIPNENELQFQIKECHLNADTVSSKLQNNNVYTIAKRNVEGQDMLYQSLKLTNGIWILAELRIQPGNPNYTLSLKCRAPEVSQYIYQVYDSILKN
Procedure: Binding of TAT, Wbox2_mutant, and Wbox2 to SNX9 and β2-HAD was investigated by ITC using a MicroCal iTC200 (GE Healthcare Life Sciences). Measurements were performed at 20°C in reaction buffer: 20 mM Hepes, 150 mM NaCl, and 1 mM TCEP, pH 7.4. Protein and peptide concentrations were determined by absorbance at 280 and 205 nm, respectively. The peptides were injected from a syringe in 21 steps up to a molar excess over the protein concentration. Titration curves were executed with NITPIC and fitted with SEDPHAT.

Sequence | IC50 [1] | Kd [2] | IC50 for cytotoxicity ([3]; CCK-8, n = 4 replicates (Fig. S5)) | effect on cell viability ([3]; concentrations ≤30 µM, CCK-8, n = 4 replicates (Fig. S5)) | cytotoxicity IC50 relative to concentration needed to inhibit CME [3] | cytotoxicity IC50 relative to concentration needed to inhibit CME ([3]; listed as CMEpi) | Kd [4]
YGRKKRRQRRRKTLQIFKSKI [Cbox2] | > 100 µM |  |  |  |  |  | 
YGRKKRRQRRRGFSCQIIGIS [Wbox2] | ~3 µM | 4 µM | > 40 µM | no effect | 10 fold | ~ 10 fold | 37.5 µM
YGRKKRRQRRRKAGKTLQIFN [Cbox1] | ~60 µM |  |  |  |  |  | 
